# According to US10798943B2, “Use of 6-anilino purine derivatives to improve heat stress tolerance of rice seedlings” (SYNGENTA PARTICIPATIONS AG, priority 2016, dated 2020):
# Assays:
# Format in all cases: in vivo
# [1] = test system: rice seedlings (hybrid rice variety ADT45); assay: Phytotoxicity assessments at Ramapuram trial; settings: for Greenness at 3.2 leaf / Seedling height at 3.2 leaf / Seedling injury / Time to 3.2 leaf / Uniformity of foliage growth at 3.2 leaf / Uniformity of greening at 3.2 leaf / Whiteness of root mat at 3.2 leaf: Ramapuram
# Experimental: For each trial, hybrid rice variety ADT45 was sown in seedling boxes. A compound of formula (Ia) was applied by foliar spray in the form of an EC formulation, at various dose rates and seedling growth stages as shown in Table 1. [table] […] The trial was carried out between 5 Aug. 2015 and 9 Sep. 2015, with transplanting on 15 Aug. 2015. The mean maximum daily temperature during the trial period was 35.3° C., and mean minimum daily temperature during the trial period was 23.7° C. The mean temperature during the entire trial period was 30.2° C.
# [2] = test system: rice seedlings (hybrid rice variety ADT45) under heat stress; assay: Transplant shock stress, visual assessment of damage severity, Ramapuram trial; settings: for Transplanting shock stress (8th day) / Transplanting shock stress (12th day) / Transplanting shock stress (4th day): Ramapuram
# Text: (§1) Trials were setup in two locations in India to test the effect of compounds of formula I on tolerance of rice seedlings to heat stress during transplantation.
# (§2) For each trial, hybrid rice variety ADT45 was sown in seedling boxes. A compound of formula (Ia) was applied by foliar spray in the form of an EC formulation, at various dose rates and seedling growth stages as shown in Table 1.
# (§3) Transplanting took place at the […] growth stage. Transplant shock was used as an indicator of tolerance to heat stress, and was measured via visual assessment of damage severity on a scale of 0% (no damage) to 100% (dead plant); observations such as yellowing and leaf tip burning are indicators of damage. Transplant shock was also assessed by measuring NVDI values using a Green Seeker™ crop sensor, which measures the percentage green area. A low transplant shock stress rating and high NVDI rating indicate improved tolerance to transplant shock stress.
# (§4) The trial was carried out between 5 Aug. 2015 and 9 Sep. 2015, with transplanting on 15 Aug. 2015. The mean maximum daily temperature during the trial period was 35.3° C., and mean minimum daily temperature during the trial period was 23.7° C. The mean temperature during the entire trial period was 30.2° C.
# [3] = test system: rice seedlings (hybrid rice variety ADT45) under heat stress; assay: Green seeker data, Ramapuram trial; set-up: key: percentage green area (NDVI), higher = better tolerance
# Text: as §1, §2, §3, §4
# [4] = treatment 2: 5 g ai/ha, Pigeon-breast
# [5] = treatment 3: 10 g ai/ha, Pigeon-breast
# [6] = treatment 4: 20 g ai/ha, Pigeon-breast
# [7] = treatment 6: 10 g ai/ha, 2-leaf
# [8] = treatment 7: 20 g ai/ha, 2-leaf
# [9] = treatment 9: 10 g ai/ha, 3-leaf
# [10] = treatment 10: 20 g ai/ha, 3-leaf
smiles,measurement,setting,value
COc1cccc(Nc2nc(F)nc3[nH]cnc23)c1 [Formula Ia],Phytotoxic effects to the rice seedlings (summary),"[1]; Ramapuram trial, some marginal effects at the highest dose rate",did not cause any phytotoxic effects
same,Greenness at 3.2 leaf,[1]; [4],3 unit
same,Seedling height at 3.2 leaf,[1]; [4],13 cm
same,Seedling injury,[1]; [4],0%
same,Time to 3.2 leaf,[1]; [4],14 days
same,Uniformity of foliage growth at 3.2 leaf,[1]; [4],90%
same,Uniformity of greening at 3.2 leaf,[1]; [4],95%
same,Whiteness of root mat at 3.2 leaf,[1]; [4],90%
same,Greenness at 3.2 leaf,[1]; [5],3 unit
same,Seedling height at 3.2 leaf,[1]; [5],13 cm
same,Seedling injury,[1]; [5],0%
same,Time to 3.2 leaf,[1]; [5],14 days
same,Uniformity of foliage growth at 3.2 leaf,[1]; [5],90%
same,Uniformity of greening at 3.2 leaf,[1]; [5],95%
same,Whiteness of root mat at 3.2 leaf,[1]; [5],90%
same,Greenness at 3.2 leaf,[1]; [6],3 unit
same,Seedling height at 3.2 leaf,[1]; [6],13 cm
same,Seedling injury,[1]; [6],0%
same,Time to 3.2 leaf,[1]; [6],14 days
same,Uniformity of foliage growth at 3.2 leaf,[1]; [6],90%
same,Uniformity of greening at 3.2 leaf,[1]; [6],95%
same,Whiteness of root mat at 3.2 leaf,[1]; [6],90%
same,Greenness at 3.2 leaf,"[1]; treatment 5: 5 g ai/ha, 2-leaf",3 unit
same,Seedling height at 3.2 leaf,"[1]; treatment 5: 5 g ai/ha, 2-leaf",15 cm
same,Seedling injury,"[1]; treatment 5: 5 g ai/ha, 2-leaf",0%
same,Time to 3.2 leaf,"[1]; treatment 5: 5 g ai/ha, 2-leaf",13 days
same,Uniformity of foliage growth at 3.2 leaf,"[1]; treatment 5: 5 g ai/ha, 2-leaf",90%
same,Uniformity of greening at 3.2 leaf,"[1]; treatment 5: 5 g ai/ha, 2-leaf",95%
same,Whiteness of root mat at 3.2 leaf,"[1]; treatment 5: 5 g ai/ha, 2-leaf",85%
same,Greenness at 3.2 leaf,[1]; [7],3 unit
same,Seedling height at 3.2 leaf,[1]; [7],15 cm
same,Seedling injury,[1]; [7],2%
same,Time to 3.2 leaf,[1]; [7],13 days
same,Uniformity of foliage growth at 3.2 leaf,[1]; [7],90%
same,Uniformity of greening at 3.2 leaf,[1]; [7],95%
same,Whiteness of root mat at 3.2 leaf,[1]; [7],85%
same,Greenness at 3.2 leaf,[1]; [8],2.5 unit
same,Seedling height at 3.2 leaf,[1]; [8],15 cm
same,Seedling injury,[1]; [8],5%
same,Time to 3.2 leaf,[1]; [8],13 days
same,Uniformity of foliage growth at 3.2 leaf,[1]; [8],90%
same,Uniformity of greening at 3.2 leaf,[1]; [8],85%
same,Whiteness of root mat at 3.2 leaf,[1]; [8],80%
same,Greenness at 3.2 leaf,"[1]; treatment 8: 5 g ai/ha, 3-leaf",3 unit
same,Seedling height at 3.2 leaf,"[1]; treatment 8: 5 g ai/ha, 3-leaf",14 cm
same,Seedling injury,"[1]; treatment 8: 5 g ai/ha, 3-leaf",0%
same,Time to 3.2 leaf,"[1]; treatment 8: 5 g ai/ha, 3-leaf",13 days
same,Uniformity of foliage growth at 3.2 leaf,"[1]; treatment 8: 5 g ai/ha, 3-leaf",90%
same,Uniformity of greening at 3.2 leaf,"[1]; treatment 8: 5 g ai/ha, 3-leaf",95%
same,Whiteness of root mat at 3.2 leaf,"[1]; treatment 8: 5 g ai/ha, 3-leaf",90%
same,Greenness at 3.2 leaf,[1]; [9],3 unit
same,Seedling height at 3.2 leaf,[1]; [9],15 cm
same,Seedling injury,[1]; [9],0%
same,Time to 3.2 leaf,[1]; [9],13 days
same,Uniformity of foliage growth at 3.2 leaf,[1]; [9],90%
same,Uniformity of greening at 3.2 leaf,[1]; [9],95%
same,Whiteness of root mat at 3.2 leaf,[1]; [9],90%
same,Greenness at 3.2 leaf,[1]; [10],3 unit
same,Seedling height at 3.2 leaf,[1]; [10],15 cm
same,Seedling injury,[1]; [10],0%
same,Time to 3.2 leaf,[1]; [10],13 days
same,Uniformity of foliage growth at 3.2 leaf,[1]; [10],90%
same,Uniformity of greening at 3.2 leaf,[1]; [10],95%
same,Whiteness of root mat at 3.2 leaf,[1]; [10],90%
same,"Tolerance to heat stress / transplant shock stress, comparison of treatments","[2]; Ramapuram trial, treatments 5 and 6 (2-leaf growth stage, 5-10 g ai/ha)",giving the best results
same,Transplanting shock stress (8th day),[2]; [4],12%
same,Transplanting shock stress (12th day),[2]; [4],13%
same,Transplanting shock stress (4th day),"[2]; treatment 2: 5 g ai/ha, Pigeon-breast, scale 0% no damage to 100% dead plant",4%
same,Transplanting shock stress (4th day),[2]; [5],3%
same,Transplanting shock stress (8th day),[2]; [5],7%
same,Transplanting shock stress (12th day),[2]; [5],17%
same,Transplanting shock stress (4th day),[2]; [6],4%
same,Transplanting shock stress (8th day),[2]; [6],8%
same,Transplanting shock stress (12th day),[2]; [6],20%
same,Transplanting shock stress (4th day),"[2]; treatment 5: 5 g ai/ha, 2-leaf",0%
same,Transplanting shock stress (8th day),"[2]; treatment 5: 5 g ai/ha, 2-leaf",2%
same,Transplanting shock stress (12th day),"[2]; treatment 5: 5 g ai/ha, 2-leaf",4%
same,Transplanting shock stress (4th day),[2]; [7],0%
same,Transplanting shock stress (8th day),[2]; [7],1%
same,Transplanting shock stress (12th day),[2]; [7],7%
same,Transplanting shock stress (4th day),[2]; [8],9%
same,Transplanting shock stress (8th day),[2]; [8],8%
same,Transplanting shock stress (12th day),[2]; [8],11%
same,Transplanting shock stress (4th day),"[2]; treatment 8: 5 g ai/ha, 3-leaf",7%
same,Transplanting shock stress (8th day),"[2]; treatment 8: 5 g ai/ha, 3-leaf",12%
same,Transplanting shock stress (12th day),"[2]; treatment 8: 5 g ai/ha, 3-leaf",13%
same,Transplanting shock stress (4th day),[2]; [9],13%
same,Transplanting shock stress (8th day),[2]; [9],20%
same,Transplanting shock stress (12th day),[2]; [9],31%
same,Transplanting shock stress (4th day),[2]; [10],23%
same,Transplanting shock stress (8th day),[2]; [10],37%
same,Transplanting shock stress (12th day),[2]; [10],34%
same,Green seeker data (15 DAT afternoon),[3]; [4],28
same,Green seeker data (15 DAT evening),[3]; [4],31
same,Green seeker data (15 DAT morning),[3]; [4],22
same,Green seeker data (15 DAT afternoon),[3]; [5],25
same,Green seeker data (15 DAT evening),[3]; [5],29
same,Green seeker data (15 DAT morning),[3]; [5],25
same,Green seeker data (15 DAT afternoon),[3]; [6],28
same,Green seeker data (15 DAT evening),[3]; [6],25
same,Green seeker data (15 DAT morning),[3]; [6],21
same,Green seeker data (15 DAT afternoon),"[3]; treatment 5: 5 g ai/ha, 2-leaf",27
same,Green seeker data (15 DAT evening),"[3]; treatment 5: 5 g ai/ha, 2-leaf",34
same,Green seeker data (15 DAT morning),"[3]; treatment 5: 5 g ai/ha, 2-leaf",25
same,Green seeker data (15 DAT afternoon),[3]; [7],29
same,Green seeker data (15 DAT evening),[3]; [7],32
same,Green seeker data (15 DAT morning),[3]; [7],28
same,Green seeker data (15 DAT afternoon),[3]; [8],26
same,Green seeker data (15 DAT evening),[3]; [8],26
same,Green seeker data (15 DAT morning),[3]; [8],22
same,Green seeker data (15 DAT afternoon),"[3]; treatment 8: 5 g ai/ha, 3-leaf",26
same,Green seeker data (15 DAT evening),"[3]; treatment 8: 5 g ai/ha, 3-leaf",30
same,Green seeker data (15 DAT morning),"[3]; treatment 8: 5 g ai/ha, 3-leaf",23
same,Green seeker data (15 DAT afternoon),[3]; [9],26
same,Green seeker data (15 DAT evening),[3]; [9],31
same,Green seeker data (15 DAT morning),[3]; [9],23
same,Green seeker data (15 DAT afternoon),[3]; [10],30
same,Green seeker data (15 DAT evening),[3]; [10],29
same,Green seeker data (15 DAT morning),[3]; [10],25
